# Experimental data taken from publication PMC8587869, “Evaluation of the Inhibitory Effects of Pyridylpyrazole Derivatives on LPS-Induced PGE2 Productions and Nitric Oxide in Murine RAW 264.7 Macrophages” (Molecules, 2021).
# Columns and labels:
# Assay type in all cases: cell-based, murine
# [1] = MTT assay for cell viability in RAW 264.7 macrophages; conditions: mouse, murine RAW 264.7 macrophages, mean ± SD of three experiments
# Experimental: (§1) Before screening the PGE2 and NO production inhibitory effects of the compounds, the compounds’ cytotoxicity was evaluated at 1 and 10 μM concentrations to make sure that the tested concentrations are safe enough and non-cytotoxic to avoid misleading results. All compounds were non-cytotoxic at 1 μM concentration, while by increasing concentration to 10 μM, all the target compounds except 1f, 1k, and 1m started showing cytotoxicity. […] The piperidinyl and the morpholino moieties seem to be unfavorable to avoid cytotoxicity in this series of compounds. page 9: Biological evaluation Cell culture and sample treatment, nitrite determination, PGE2 assay, and MTT assay for cell viability have been carried out following the reported procedures [Bioorg. Med. Chem. Lett. 2014, 24, 571 & Eur. J. Pharmacol. 2008, 584, 175]. Western blot RAW 264.7 macrophage cells were re-suspended in PRO-PREPTM protein extraction solution (Intron Biotechnology, Seoul, Korea) and incubated with 20 min at 4 °C. The cell debris was removed by microcentrifugation, and the supernatants were quickly frozen. The protein concentration was determined using the Bio-Rad protein assay reagent according to the manufacture’s instruction. Cellular proteins were electroblotted onto a PVDF membrane following separation on 8-12% SDS-polyacrylamide gel electrophoresis. The immunoblot was incubated with blocking solution (5% skimmed milk) at room temperature for 1 h, followed by incubation overnight with a primary antibody at 4 °C. The blots were washed four times with a Tween 20/Tris-buffered saline (T/TBS) and incubated with a 1:2000 dilution of horseradish peroxidase-conjugated secondary antibody for 2 h at room temperature. The blots were again washed three times with T/TBS, and then developed by enhanced chemiluminescence (GE healthcare, WI, USA). Page 9 of 55
# RAW 264.7 macrophages [2] = assay: as above; conditions: 10 μM; RAW 264.7 macrophages
# Experimental: as §1
# RAW 264.7 macrophages [3] = assay: as above; conditions: 2.5, 5, 10 μM; LPS-induced RAW 264.7 macrophages
# [4] = tested on: LPS-induced PGE2 production; assay: Inhibition of LPS-induced PGE2 production in RAW 264.7 macrophages; conditions: for inhibition of PGE2 production (in words): 2.5, 5, 10 μM
# Experimental: (§2) Upon confirming the non-cytotoxicity of 10 μM concentration of these three derivatives against murine RAW 264.7 macrophages induced by LPS, compounds 1f, 1k, and 1m were tested for inhibitory effect against LPS-induced PGE2 production together with checking their cell viability. […] The fluorine atom can also add some more merits such as formation of an additional hydrogen bond with a hydrogen bond donor in the target protein and stronger hydrophobic interaction by fluorophenyl compared with unsubstituted phenyl. […] Moreover, 1f and 1m were evaluated at 1 and 10 μM for inhibitory effects on LPS-induced NO production.
# (§3) Cell culture and sample treatment, nitrite determination, PGE2 assay, and MTT assay for cell
# (§4) viability have been carried out following the reported procedures [Bioorg. Med. Chem. Lett. […]
# [5] = tested on: LPS-induced NO production; assay: Inhibition of LPS-induced NO production (nitrite determination) in RAW 264.7 cells; conditions: LPS-induced RAW 264.7 cells; for inhibition at 1 µM / inhibition at 10 µM: Mus musculus, read-out: Inhibition Rate (%) of NO production; for inhibition at 1 µM: RAW264.7, 1 μM; for inhibition at 10 µM: RAW264.7, 10 μM
# Experimental: as §2, §3, §4
# phosphorylation of p38 = assay: Western blot of p-p38 in LPS-induced RAW 264.7 macrophages
# Experimental: (§5) Furthermore, the most promising compound 1m was chosen for a more extensive investigation of its molecular mechanism(s) of action. It was tested for inhibitory effects on COX-2 and iNOS protein expressions (Figure 4).
# (§6) Cell culture and sample treatment, nitrite determination, PGE2 assay, and MTT assay for cell viability have been carried out following the reported procedures [Bioorg. Med. Chem. Lett.
# (§7) RAW 264.7 macrophage cells were re-suspended in PRO-PREPTM protein extraction solution (Intron Biotechnology, Seoul, Korea) and incubated with 20 min at 4 °C. The cell debris was removed by microcentrifugation, and the supernatants were quickly frozen. The protein concentration was determined using the Bio-Rad protein assay reagent according to the manufacture’s instruction. Cellular proteins were electroblotted onto a PVDF membrane following separation on 8-12% SDS-polyacrylamide gel electrophoresis. The immunoblot was incubated with blocking solution (5% skimmed milk) at room temperature for 1 h, followed by incubation overnight with a primary antibody at 4 °C. The blots were washed four times with a Tween 20/Tris-buffered saline (T/TBS) and incubated with a 1:2000 dilution of horseradish peroxidase-conjugated secondary antibody for 2 h at room temperature. The blots were again washed three times with T/TBS, and then developed by enhanced chemiluminescence (GE
# iNOS protein expression = assay: Western blot of iNOS protein expression in LPS-induced RAW 264.7 macrophages; conditions: especially at 10 µM
# Experimental: as §5, §6, §7
# COX-2 protein expression = assay: Western blot of COX-2 protein expression in LPS-induced RAW 264.7 macrophages; conditions: especially at 10 µM
# Experimental: as §5, §6, §7
# [6] = LPS-induced RAW 264.7 macrophages
# [7] = Mus musculus, RAW264.7, LPS-induced RAW 264.7 macrophages
smiles,measurement,setting,value
COc1cc(-c2nn(-c3cccc(NC(=O)CN4CCCCC4)c3)cc2-c2ccncc2)ccc1Cl [Compound 1a],viability at 1 µM,[1],99 ± 5.9%
same,viability at 10 µM,[1],10 ± 1.2%
COc1cc(-c2nn(-c3cccc(NC(=O)CN4CCOCC4)c3)cc2-c2ccncc2)ccc1Cl [Compound 1b],viability at 1 µM,[1],92 ± 4.5%
same,viability at 10 µM,[1],65 ± 2.8%
COc1cc(-c2nn(-c3cccc(NC(=O)CN4CCN(C)CC4)c3)cc2-c2ccncc2)ccc1Cl [Compound 1c],viability at 1 µM,[1],78 ± 3.3%
same,viability at 10 µM,[1],5 ± 0.8%
CCN1CCN(CC(=O)Nc2cccc(-n3cc(-c4ccncc4)c(-c4ccc(Cl)c(OC)c4)n3)c2)CC1 [Compound 1d],viability at 1 µM,[1],75 ± 2.9%
same,viability at 10 µM,[1],3 ± 0.4%
COc1cc(-c2nn(-c3cccc(NC(=O)CN4CCN(c5ccccc5)CC4)c3)cc2-c2ccncc2)ccc1Cl [Compound 1e],viability at 1 µM,[1],87 ± 4.1%
same,viability at 10 µM,[1],65 ± 4.1%
COc1cc(-c2nn(-c3cccc(NC(=O)CN4CCN(Cc5ccccc5)CC4)c3)cc2-c2ccncc2)ccc1Cl [Compound 1f],viability at 1 µM,[1],66 ± 1.8%
same,viability at 10 µM,[1],107 ± 8.5%
same,cytotoxicity (in words),RAW 264.7 macrophages [2],non-cytotoxic
same,"cytotoxicity (in words), LPS-induced RAW 264.7 cell viability",RAW 264.7 macrophages [3],no cytotoxicity
same,inhibition of PGE2 production (in words),[4]; [6],good inhibition values
same,IC50,[4]; [6],7.1 µM
same,IC50,[4]; [7],7.6 µM
same,inhibition at 5 µM,"[4]; Mus musculus, RAW264.7, 5 μM, LPS-induced RAW 264.7 macrophages",37.4%
same,inhibition at 10 µM,[4]; [7],65.4%
same,Inhibition Rate (%) of NO production,[5]; 10 μM,11.06 ± 1.5%
same,inhibition at 1 µM,[5],0%
same,inhibition at 10 µM,[5],11.6%
COc1cc(-c2nn(-c3cccc(NC(=O)CCN4CCCCC4)c3)cc2-c2ccncc2)ccc1Cl [Compound 1g],viability at 1 µM,[1],87 ± 3.8%
same,viability at 10 µM,[1],5 ± 1.1%
COc1cc(-c2nn(-c3cccc(NC(=O)CCN4CCOCC4)c3)cc2-c2ccncc2)ccc1Cl [Compound 1h],viability at 1 µM,[1],99 ± 2.8%
same,viability at 10 µM,[1],75 ± 1.7%
COc1cc(-c2nn(-c3cccc(NC(=O)CCN4CCN(C)CC4)c3)cc2-c2ccncc2)ccc1Cl [Compound 1i],viability at 1 µM,[1],99 ± 3.4%
same,viability at 10 µM,[1],5 ± 1.8%
CCN1CCN(CCC(=O)Nc2cccc(-n3cc(-c4ccncc4)c(-c4ccc(Cl)c(OC)c4)n3)c2)CC1 [Compound 1j],viability at 1 µM,[1],98 ± 3.1%
same,viability at 10 µM,[1],5 ± 0.8%
COc1cc(-c2nn(-c3cccc(NC(=O)CCN4CCN(c5ccccc5)CC4)c3)cc2-c2ccncc2)ccc1Cl [Compound 1k],viability at 1 µM,[1],89 ± 2.8%
same,viability at 10 µM,[1],112 ± 7.6%
same,cytotoxicity (in words),RAW 264.7 macrophages [2],non-cytotoxic
same,"cytotoxicity (in words), LPS-induced RAW 264.7 cell viability",RAW 264.7 macrophages [3],no cytotoxicity
same,inhibition of PGE2 production (in words),[4]; [6],good inhibition values
COc1cc(-c2nn(-c3cccc(NC(=O)CCN4CCN(Cc5ccccc5)CC4)c3)cc2-c2ccncc2)ccc1Cl [Compound 1l],viability at 1 µM,[1],86 ± 3.7%
same,viability at 10 µM,[1],34 ± 1.1%
COc1cc(-c2nn(-c3cccc(NC(=O)CCN4CCN(Cc5ccc(F)cc5)CC4)c3)cc2-c2ccncc2)ccc1Cl [Compound 1m],viability at 1 µM,[1],90 ± 4.1%
same,viability at 10 µM,[1],97 ± 3.9%
same,cytotoxicity (in words),RAW 264.7 macrophages [2],non-cytotoxic
same,effect on phosphorylation of p38 (in words),phosphorylation of p38,markedly suppressed
same,effect on iNOS protein expression (in words),iNOS protein expression,concentration-dependent inhibitory effect
same,effect on COX-2 protein expression (in words),COX-2 protein expression,concentration-dependent inhibitory effect
same,"cytotoxicity (in words), LPS-induced RAW 264.7 cell viability",RAW 264.7 macrophages [3],no cytotoxicity
same,inhibition of PGE2 production (in words),[4]; [6],good inhibition values
same,IC50,[4]; [7],1.1 µM
same,inhibition at 2.5 µM,"[4]; Mus musculus, RAW264.7, 2.5 μM, LPS-induced RAW 264.7 macrophages",67%
same,inhibition at 10 µM,[4]; [7],84.9%
same,Inhibition Rate (%) of NO production,[5]; 10 μM,37.19 ± 3.4%
same,inhibition at 1 µM,[5],0%
same,inhibition at 10 µM,[5],37%
"CC(=N)NCCCC[C@H](N)C(=O)O [L-NIL, reference compound]",Inhibition Rate (%) of NO production,[5]; 1 μM,3.9 ± 2.1%
same,Inhibition Rate (%) of NO production,[5]; 10 μM,31.32 ± 2.9%
